Results from the SangsterLogP compilation.

experiment: method code SF-AS, from DOI: 10.1021/jm00252a008, PMID: 4598022

| logP | Compound |
| --- | --- |
| 1.46 | C=CCN=C1SC(=Cc2ccc([N+](=O)[O-])o2)C(=O)N1CC=C |
| 0.63 | O=C1NC(=O)/C(=C\c2ccc([N+](=O)[O-])o2)S1 |
| 1.16 | C/N=C1\NC(=O)/C(=C/c2ccc([N+](=O)[O-])o2)S1 |
| 1.78 | CN1C(=O)S/C(=C\c2ccc([N+](=O)[O-])o2)C1=O |
| 1.44 | CN1C(=N)S/C(=C/c2ccc([N+](=O)[O-])o2)C1=O |
| 1.09 | NC1=NC(=O)C(=Cc2ccc([N+](=O)[O-])o2)S1 (stereo in doubt) |
| 1.35 | C/N=C1/NC(=O)/C(=C/C=C/c2ccc([N+](=O)[O-])o2)S1 |
| 1.03 | CC(=O)NC1=NC(=O)/C(=C/c2ccc([N+](=O)[O-])o2)S1 |
| 2.4 | CCCN1C(=O)S/C(=C\c2ccc([N+](=O)[O-])o2)C1=O |
| 1.21 | CCN1C(=O)C(=Cc2ccc([N+](=O)[O-])o2)S/C1=N\C(C)=O |
| 1.06 | CN1C(=O)/C(=C\c2ccc([N+](=O)[O-])o2)SC1=S |
| 1.21 | CC(=O)N(C)C1=NC(=O)/C(=C\C=C/c2ccc([N+](=O)[O-])o2)S1 |
| 0.55 | O=c1cc(-c2ccc([N+](=O)[O-])o2)sc(=O)[nH]1 |
| 1.41 | O=C1NC(=Nc2ccccc2)SC1=Cc1ccc([N+](=O)[O-])o1 |
| 1.4 | CN1C(=O)SC(=CC=Cc2ccc([N+](=O)[O-])o2)C1=O |
| 1.32 | CCCN=C1SC(=Cc2ccc([N+](=O)[O-])o2)C(=O)N1CCC |
| 2.29 | CCN1C(=O)S/C(=C/c2ccc([N+](=O)[O-])o2)C1=O |
| 2.42 | CC(C)N1C(=O)S/C(=C\c2ccc([N+](=O)[O-])o2)C1=O |
| 0.86 | CNc1nc(=O)cc(-c2ccc([N+](=O)[O-])o2)s1 |

| logP | Compound |
| --- | --- |
| 0.95 | CC(=O)NC1=NC(=O)/C(=C\C=Cc2ccc([N+](=O)[O-])o2)S1 (stereo in doubt) |
| 1.29 | CC(C)/N=C1\NC(=O)/C(=C/c2ccc([N+](=O)[O-])o2)S1 |
| 1.05 | CC(=O)N(C)C1=NC(=O)/C(=C/c2ccc([N+](=O)[O-])o2)S1 |
| 1.44 | CCN1C(=N)SC(=Cc2ccc([N+](=O)[O-])o2)C1=O |
| 1.01 | CC(=O)Nc1nc(=O)cc(-c2ccc([N+](=O)[O-])o2)s1 |
| 1.16 | CC/N=C1\NC(=O)/C(=C/c2ccc([N+](=O)[O-])o2)S1 |
| 1.17 | CCCN1C(=O)/C(=C/c2ccc([N+](=O)[O-])o2)S/C1=N\C(C)=O |
| 1.24 | CCC/N=C1\NC(=O)/C(=C/c2ccc([N+](=O)[O-])o2)S1 |
| 0.93 | O=C1NC(=S)SC1=CC=Cc1ccc([N+](=O)[O-])o1 |
| 0.74 | O=C1NC(=S)SC1=Cc1ccc([N+](=O)[O-])o1 |
| 1.21 | CC(=O)N=C1S/C(=C\c2ccc([N+](=O)[O-])o2)C(=O)N1C (stereo in doubt) |
| 0.55 | CN(C)c1nc(=O)cc(-c2ccc([N+](=O)[O-])o2)s1 |
| 1.41 | CSC1=NC(=O)C(=Cc2ccc([N+](=O)[O-])o2)S1 (stereo in doubt) |
| 1.22 | CCN(CC)C1=NC(=O)/C(=C/c2ccc([N+](=O)[O-])o2)S1 |
| 2.22 | C=CCN1C(=O)S/C(=C\c2ccc([N+](=O)[O-])o2)C1=O |
| 1.22 | CC(C)N=C1SC(=Cc2ccc([N+](=O)[O-])o2)C(=O)N1C(C)C |
| 1.42 | C/N=C1\SC(=Cc2ccc([N+](=O)[O-])o2)C(=O)N1C |
| 1.16 | CN(C)C1=NC(=O)/C(=C/c2ccc([N+](=O)[O-])o2)S1 |
